ChEMBL document CHEMBL4706515, “Discovery of new [1,2,4] Triazolo[1,5-a]Pyrimidine derivatives that Kill gastric cancer cells via the mitochondria pathway” (Eur J Med Chem, 2020)
Activity calls are given as the source filed them. The rule behind the calls is not given here.

Assays:
MGC-803 [1] = experiment: Antiproliferative activity against human MGC-803 cells assessed as inhibition of cell growth at measured after 72 hrs by SRB assay; type: functional
MGC-803 [2] = experiment: Induction of morphological changes in human MGC-803 cells assessed as cell shrinkage at 10 uM incubated for 1 hrs by bright field microscopic analysis; type: functional, cell-based
SGC-7901 [3] = experiment: Inhibition of cell proliferation in human SGC-7901 cells at 10 uM measured after 72 hrs by SRB assay; type: functional, cell-based
MGC-803 [4] = experiment: Induction of apoptosis in human MGC-803 cells assessed as early apoptotic cells at 0.625 uM measure after 24 hrs by Annexin-PI staining based Flowcytometry method (reference value: 9.8%); type: functional
MGC-803 [5] = experiment: Induction of apoptosis in human MGC-803 cells assessed as necrotic cells at 0.625 uM measure after 24 hrs by Annexin-PI staining based Flowcytometry method (reference value: 3.13%); type: functional
MGC-803 [6] = experiment: Induction of apoptosis in human MGC-803 cells assessed as viable cells at 1.25 uM measure after 24 hrs by Annexin-PI staining based Flowcytometry method (reference value: 80%); type: functional; settings: read-out: Activity
MGC-803 [7] = experiment: Induction of apoptosis in human MGC-803 cells assessed as early apoptotic cells at 1.25 uM measure after 24 hrs by Annexin-PI staining based Flowcytometry method (reference value: 9.8%); type: functional
MGC-803 [8] = experiment: Induction of apoptosis in human MGC-803 cells assessed as early apoptotic cells at 2.5 uM measure after 24 hrs by Annexin-PI staining based Flowcytometry method (reference value: 9.8%); type: functional
MGC-803 [9] = experiment: Induction of apoptosis in human MGC-803 cells assessed as viable cells at 5 uM measure after 24 hrs by Annexin-PI staining based Flowcytometry method (reference value: 80%); type: functional; settings: read-out: Activity
MGC-803 [10] = experiment: Induction of apoptosis in human MGC-803 cells assessed as late apoptotic cells at 5 uM measure after 24 hrs by Annexin-PI staining based Flowcytometry method (reference value: 7.06%); type: functional
MGC-803 [11] = experiment: Induction of apoptosis in human MGC-803 cells assessed as viable cells at 10 uM measure after 24 hrs by Annexin-PI staining based Flowcytometry method (reference value: 80%); type: functional; settings: read-out: Activity
MGC-803 [12] = experiment: Induction of apoptosis in human MGC-803 cells assessed as late apoptotic cells at 10 uM measure after 24 hrs by Annexin-PI staining based Flowcytometry method (reference value: 7.06%); type: functional
MGC-803 [13] = experiment: Induction of apoptosis in human MGC-803 cells assessed as necrotic cells at 10 uM measure after 24 hrs by Annexin-PI staining based Flowcytometry method (reference value: 3.13%); type: functional
SGC-7901 [14] = experiment: Induction of apoptosis in human SGC-7901 cells assessed as viable cells at 0.625 uM measure after 24 hrs by Annexin-PI staining based Flowcytometry method (reference value: 94.9%); type: functional; settings: read-out: Activity
SGC-7901 [15] = experiment: Induction of apoptosis in human SGC-7901 cells assessed as early apoptotic cells at 0.625 uM measure after 24 hrs by Annexin-PI staining based Flowcytometry method (reference value: 2.68%); type: functional
SGC-7901 [16] = experiment: Induction of apoptosis in human SGC-7901 cells assessed as late apoptotic cells at 0.625 uM measure after 24 hrs by Annexin-PI staining based Flowcytometry method (reference value: 1.29%); type: functional
SGC-7901 [17] = experiment: Induction of apoptosis in human SGC-7901 cells assessed as necrotic cells at 0.625 uM measure after 24 hrs by Annexin-PI staining based Flowcytometry method (reference value: 1.16%); type: functional
SGC-7901 [18] = experiment: Induction of apoptosis in human SGC-7901 cells assessed as viable cells at 1.25 uM measure after 24 hrs by Annexin-PI staining based Flowcytometry method (reference value: 94.9%); type: functional; settings: read-out: Activity
SGC-7901 [19] = experiment: Induction of apoptosis in human SGC-7901 cells assessed as viable cells at 2.5 uM measure after 24 hrs by Annexin-PI staining based Flowcytometry method (reference value: 94.9%); type: functional; settings: read-out: Activity
SGC-7901 [20] = experiment: Induction of apoptosis in human SGC-7901 cells assessed as late apoptotic cells at 2.5 uM measure after 24 hrs by Annexin-PI staining based Flowcytometry method (reference value: 1.29%); type: functional
SGC-7901 [21] = experiment: Induction of apoptosis in human SGC-7901 cells assessed as early apoptotic cells at 5 uM measure after 24 hrs by Annexin-PI staining based Flowcytometry method (reference value: 2.68%); type: functional
SGC-7901 [22] = experiment: Induction of apoptosis in human SGC-7901 cells assessed as necrotic cells at 5 uM measure after 24 hrs by Annexin-PI staining based Flowcytometry method (reference value: 1.16%); type: functional
SGC-7901 [23] = experiment: Induction of apoptosis in human SGC-7901 cells assessed as late apoptotic cells at 10 uM measure after 24 hrs by Annexin-PI staining based Flowcytometry method (reference value: 1.29%); type: functional
MGC-803 [24] = experiment: Induction of apoptosis in human MGC-803 cells assessed as accumulation of cleaved caspase 9 protein at 0.625 to 10 uM measured after 24 hrs by western blot assay; type: functional, cell-based; settings: dose 0.625-10 µM
MGC-803 [25] = experiment: Induction of mitochondrial membrane potential loss in human MGC-803 cells at 2.5 uM measured after 24 hrs by JC-1 staining based flow cytometry method (reference value: 0.344%); settings: Mitochondria
MGC-803 [26] = experiment: Induction of mitochondrial membrane potential loss in human MGC-803 cells at 5 uM measured after 24 hrs by JC-1 staining based flow cytometry method (reference value: 0.344%); settings: Mitochondria
MGC-803 [27] = experiment: Induction of mitochondrial membrane potential loss in human MGC-803 cells at 10 uM measured after 24 hrs by JC-1 staining based flow cytometry method (reference value: 0.344%); settings: Mitochondria
MGC-803 [28] = experiment: Cytotoxicity against human MGC-803 cells assessed as inhibition of cell viability incubated for 1 hr with Z-VAD-FMK followed by addition of compound; type: functional, cell-based
MGC-803 [29] = experiment: Induction of apoptosis in human MGC-803 assessed by cleaved PARP levels incubated for 1 hr with Z-VAD-FMK followed by compound addition measured by western blot assay; type: functional, cell-based
MGC-803 [30] = experiment: Induction of apoptosis in human MGC-803 cells assessed as increase in ROS production at 5 uM measured after 24 hrs by DCHF-DA staining based Flowcytometry method; type: functional, cell-based
MGC-803 [31] = experiment: Antiproliferative activity in human MGC-803 cells assessed as inhibition of cell viability preincubated for 1 hr with NAC followed by compound addition at 5 uM measured after 72 hrs by SRB staining method; type: functional, cell-based
MGC-803 [32] = experiment: Antiproliferative activity in human MGC-803 cells assessed as inhibition of cell viability preincubated with 3-methyladenine followed by compound addition measured after 24 hrs by SRB staining method; type: functional, cell-based
MGC-803 [33] = experiment: Antiproliferative activity in human MGC-803 cells assessed as cell viability preincubated with chloroquine followed by compound addition measured after 24 hrs by SRB staining method; type: functional, cell-based
MGC-803 [34] = experiment: Induction of apoptosis in human MGC-803 cells assessed as increase in accumulation of LC3B-2 preincubated with Chloroquine measured after 24 hrs by western blot assay; type: functional, cell-based
MGC-803 [35] = experiment: Induction of apoptosis in human MGC-803 cells assessed as decrease in accumulation of cleaved PARP preincubated with Chloroquine measured after 24 hrs by western blot assay; type: functional, cell-based
[36] = Selectivity index, ratio of GI50 for human MGC803 to GI50 for human GES-1 cells

## Cc1cc(Nc2ccc(C(=O)/C=C/c3cccc(Br)n3)cc2)n2nc(SCc3nc4ccccc4[nH]3)nc2n1
MGC-803 [1]
  GI50: 640 nM
MGC-803 [2]
  Activity: Active
SGC-7901 [3]
  inhibition: Active
MGC-803 [4]
  Activity: 4.92%
MGC-803 [5]
  Activity: 1.72%
MGC-803 [6]
  viability at 1.25 µM: 88.6%
MGC-803 [7]
  Activity: 7.21%
MGC-803 [8]
  Activity: 7.11%
MGC-803 [9]
  viability at 5 µM: 73.8%
MGC-803 [10]
  Activity: 15.4%
MGC-803 [11]
  viability at 10 µM: 45.3%
MGC-803 [12]
  Activity: 36.4%
MGC-803 [13]
  Activity: 8.84%
SGC-7901 [14]
  viability at 0.625 µM: 94.2%
SGC-7901 [15]
  Activity: 2.25%
SGC-7901 [16]
  Activity: 1.55%
SGC-7901 [17]
  Activity: 1.96%
SGC-7901 [18]
  viability at 1.25 µM: 94.8%
SGC-7901 [19]
  viability at 2.5 µM: 88.3%
SGC-7901 [20]
  Activity: 5.53%
SGC-7901 [21]
  Activity: 16.7%
SGC-7901 [22]
  Activity: 0.586%
SGC-7901 [23]
  Activity: 62.8%
MGC-803 [24]
  Activity: Active
MGC-803 [25]
  Activity: 3.25%
MGC-803 [26]
  Activity: 3.13%
MGC-803 [27]
  Activity: 10.7%
MGC-803 [28]
  inhibition: inactive
MGC-803 [29]
  Activity: inactive
MGC-803 [30]
  Activity: Active
MGC-803 [31]
  inhibition: inactive
MGC-803 [32]
  inhibition: Active
MGC-803 [33]
  inhibition: inactive
MGC-803 [34]
  Activity: Active
MGC-803 [35]
  Activity: inactive
[36]
  RatioGI50: 6.9
